{
  "source": "patent US20160053026A1",
  "about": "“METHODS FOR TREATING INFECTION BY HPV” (STC.UNM, priority 2011, published 2016)",
  "key": {"[1]": {"system": "HPV[+] human keratinocytes", "test": "MTT cell viability assay, HPV[+] cells", "type": "cell-based", "conditions": "cetuximab 50, 100, 200 μg/mL; PD98059 12.5, 25, 50 μM; MTT after 72 hours (seven days)", "protocol": "(§1) FIG. 7. […] The boxes indicate the same concentrations used in the FIG. 3 and FIG. 5. MTT assays were performed to assess cell viability. Error bars represent SEM (N=3).\n(§2) Western blot was performed (FIG. 5) and cell viability determined with MTT assay and clonogenic assays performed as described (FIG. 7) (Meira et al., 2009, Euro J Cancer 45:1265-1273).\n(§3) The proliferative capacity of MAPK inhibitor-treated cells compared to untreated cells was measured by MTT assay after 72 hours to determine the surviving fractions (FIG. 7)."}, "HPV16 viral genome": {"system": "HPV16 viral genome", "test": "qPCR of HPV16 LCR (viral genome number) in HPV[+] HFK cells", "type": "cell-based", "conditions": "cetuximab 100 μg/mL or PD98059 25 μM, two to six days after treatment", "source_text": "Response of HPV16 viral genome number to EGFR or MAPK Inhibitors. […] Total DNA harvested at indicated time points was subjected to qPCR for HPV16 LCR quantification. […] Data are the result of 2 separate experiments. (* p<0.05, ** p<0.01).\nTotal DNA harvested at two days, three days, four days, five days, or six days after treatment was subjected to qPCR (SYBR Green I kit on the BioRad iCycler) for HPV16 LCR quantification. […] Total RNAs were extracted from cells using TRIzol (Invitrogen), and processed with the\n(§5) TURBO DNA-free Kit (Ambion) to remove co-purifying viral and cellular DNA. Reverse transcription (RT) of total RNAs (0.2-0.5 μg) was performed using random hexamer primers and ABI reagents (Applied Biosystems). For quantitative PCR (qPCR), 2 μl of each cDNA or total DNA was analyzed in triplicate using the SYBR Green I kit on the iCycler (Bio-Rad Laboratories, Inc., Hercules, Calif.)."}, "p-ERK1/2": {"system": "p-ERK1/2", "test": "Immunoblot for p-ERK1/2 (MAPK signaling) after EGF stimulation in HPV[+] and HPV[−] keratinocytes", "type": "cell-based, human", "conditions": "cetuximab 100 μg/mL or PD98059 25 μM; 10 ng/mL EGF in SFM, 5 or 15 minutes; SG3 (HPV16[+]) and NIKS (HPV[−]) cells", "protocol": "(§4) FIG. 5. […] Mock=No EGF. Cell lysates were harvested and subjected to SDS-PAGE and immunoblot for p-EGFR, total EGFR, p-ERK1/2 and GAPDH, a loading control.\nas §2"}, "HPV16 E1^E4 early mRNA": {"system": "HPV16 E1^E4 early mRNA", "test": "RT-qPCR of HPV16 E1^E4 early mRNA in HPV[+] HFK cells", "type": "cell-based", "conditions": "cetuximab 100 μg/mL or PD98059 25 μM, 24-96 hours", "procedure": "HPV16 E1̂E4 early mRNA levels in response to treatment with EGFR or MAPK inhibitors. […] Total RNA harvested at indicated time points was subjected to RT and then to qPCR for β-actin and HPV16 E1̂E4 quantification. […] Data are the result of two separate experiments.\nTotal RNA harvested at 24 hours, 48 hours, 72 hours, or 96 hours was subjected to RT and then to qPCR for β-actin and HPV16 E1̂E4 quantification.\nas §5"}, "[2]": {"system": "HPV[−] human keratinocytes", "test": "MTT cell viability assay, HPV[−] cells", "type": "cell-based", "conditions": "cetuximab 50, 100, 200 μg/mL; PD98059 12.5, 25, 50 μM; MTT after 72 hours (seven days)", "protocol": "as §1, §2, §3"}, "EGFR": {"system": "EGFR", "test": "Immunoblot for p-EGFR after EGF stimulation in HPV[+] and HPV[−] keratinocytes", "type": "cell-based, human", "conditions": "cetuximab 100 μg/mL or PD98059 25 μM; 10 ng/mL EGF in SFM, 5 or 15 minutes; SG3 (HPV16[+]) and NIKS (HPV[−]) cells", "protocol": "as §4, §2"}},
  "data": [
    {"compound": "COc1cccc(-c2cc(=O)c3ccccc3o2)c1N", "note": "[PD98059]", "values": [
      {"measurement": "viability of HPV[+] cells (MTT)", "setting": "[1]", "result": "dose-dependent decrease in viability"},
      {"measurement": "HPV16 genome levels (LCR qPCR) compared to mock treated", "setting": "HPV16 viral genome", "result": "statistically significant decrease in HPV16 genome levels"},
      {"measurement": "downstream / MAPK signaling (p-ERK1/2)", "setting": "p-ERK1/2", "result": "blocked MAPK signaling"},
      {"measurement": "HPV16 E1^E4 transcript levels", "setting": "HPV16 E1^E4 early mRNA", "result": "decrease is statistically significant after 48 hours of treatment"},
      {"measurement": "viability of HPV[−] cells (MTT)", "setting": "[2]", "result": "dose-dependent decrease in viability"},
      {"measurement": "EGFR activation (p-EGFR)", "setting": "EGFR", "result": "did not affect EGFR activation"}
    ]}
  ]
}
